Columns and labels:
[1] = tested on: monoclonal antibody 14H04; test: ACMIA cross-reactivity / binding of tacrolimus derivatives to monoclonal antibody 14H04; set-up: species or system mouse; conditions: ACMIA format
Procedure: The monoclonal antibody for region 14 may be identified by a screening method as follows: The binding region of an antibody clone was identified based on its binding properties to different tacrolimus derivatives such as metabolites and immunogens.
Measurements of tacrolimus derivatives by the ACMIA assay format were carried out according to the following procedure. Metabolites were obtained from Isotechnika Pharma Inc (Alberta, Canada) and Dr. Christistians Laboratory at University of Colorado in Denver, Colo. The tacrolimus derivative compounds such as immunogens were obtained from Siemens AG (Glasgow, Del.). The metabolite and immunogen cross-reactivity was measured using the ACMIA methodology described in U.S. Pat. No. 7,186,518, the relevant disclosure of which is incorporated herein by reference. Briefly, both clones were conjugated to β-galactosidase using a standard heterobifunctional SMCC (succinimidyl trans-4-(N-maleimidylmethyl)cyclohexane-1-carboxylate) linker according to known techniques. […] The cross reactivity was detected by testing the samples containing spiked metabolites and other tacrolimus derivatives such as the immunogens. […] Cross-reactivity was determined by dividing the apparent tacrolimus concentration by the concentration of added metabolite and expressing the result as a percentage.

[2] = tested on: monoclonal antibody 1E2; test: ACMIA cross-reactivity / binding of tacrolimus derivatives to monoclonal antibody 1E2; set-up: species or system mouse; conditions: ACMIA format, 1E2-β-galactosidase conjugate, tacrolimus C32 fluorescein derivative chrome particles
Procedure: The monoclonal antibody for region 12 may be identified by the following screening method. […] Modification of the hydroxyl group linked to C24 weakened the binding of monoclonal antibody 1E2 to tacrolimus.
Measurements of tacrolimus derivatives by the ACMIA assay format were carried out according to the following procedure. Metabolites were obtained from Isotechnika Pharma Inc (Alberta, Canada) and Dr. Christistians Laboratory at University of Colorado in Denver, Colo. The tacrolimus derivative compounds such as immunogens were obtained from Siemens AG (Glasgow, Del.). The metabolite and immunogen cross-reactivity was measured using the ACMIA methodology described in U.S. Pat. No. 7,186,518, the relevant disclosure of which is incorporated herein by reference. Briefly, both clones were conjugated to β-galactosidase using a standard heterobifunctional SMCC (succinimidyl trans-4-(N-maleimidylmethyl)cyclohexane-1-carboxylate) linker according to known techniques. Chrome particles (immunoassay solid phase) were prepared by conjugating tacrolimus analogs to bovine immunoglobulin and then to polyaldehyde dextran coated chromium dioxide particles. The tacrolimus analog used for monoclonal antibody 14H04 was a tacrolimus C22 oxime compound. The analog used for monoclonal antibody 1E2 was a tacrolimus C32 fluorescein derivative immobilized on anti-fluorescein antibody coated chromium dioxide particles. The cross reactivity was detected by testing the samples containing spiked metabolites and other tacrolimus derivatives such as the immunogens. The assay signals obtained from the samples containing the spiked metabolites were compared to the signals obtained from the samples containing tacrolimus standards. Cross-reactivity was determined by dividing the apparent tacrolimus concentration by the concentration of added metabolite and expressing the result as a percentage.

| SMILES | cross-reactivity with monoclonal antibody 14H04 ([1]; spiked metabolite compared with tacrolimus standards) | binding to monoclonal antibody 1E2 [2] | binding to monoclonal antibody 14H04 ([1]; 14H04-β-galactosidase conjugate, tacrolimus C22 oxime chrome particles) |
| --- | --- | --- | --- |
| C=CCC1C=C(C)CC(C)CC(O)C2OC(O)(C(=O)C(=O)N3CCCCC3C(=O)OC(C(C)=CC3CCC(O)C(OC)C3)C(C)C(O)CC1=O)C(C)CC2OC (stereo not drawn) [15-O-demethyl tacrolimus, 15-O-desmethyl-tacrolimus] | no cross-reactivity | – | – |
| C=CCC1C=C(C)CC(C)CC(OC)C2OC(O)(C(=O)C(=O)N3CCCCC3C(=O)OC(C(C)=CC3CCC(O)C(O)C3)C(C)C(O)CC1=O)C(C)CC2OC (stereo not drawn) [31-O-desmethyl, 31-O-desmethyl Tacrolimus] | – | does not decrease binding | – |
| C=CCC1C=C(C)CC(C)CC(OC)C2OC(O)(C(=O)C(=O)N3CCCCC3C(=O)OC(C(C)=CC3CCC(O)C(OC)C3)C(C)C(O)CC1=O)C(C)CC2O (stereo not drawn) [M1, 13-O-desmethyl-tacrolimus] | – | removed the binding | – |
| C=CCC1C=C(C)CC(C)CC(OC)C2OC(O)(C(=O)C(=O)N3CCCCC3C(=O)OC(C(C)=CC3CCC(O)C(O)C3)C(C)C(O)CC1=O)C(C)CC2O (stereo not drawn) [MVI, 13,31-O-didesmethyl-tacrolimus] | – | removed the binding | – |
| C=CCC1C=C(C)CC(C)CC(OC)C2OC(O)(C(=O)C(=O)N3CCCCC3C(=O)OC(C(C)=CC3CCC(O)C(OC)C3)C(C)C(O)CC1=NO)C(C)CC2OC (stereo not drawn) [tacrolimus C22 oxime] | – | does not bind | strong binding |
